Each structure is given as a SMILES string. Several values for one entry are separate records, joined by “and”; a condition that tells them apart may be missing. Equal values may be shown once. Inconclusive results and toxic doses are left out.

The assay relates to CD2F1 mice, L1210 leukemia ip, survival T/C. The experiment in a line: NCI In Vivo Anticancer Drug Screen. Data for tumor model L1210 Leukemia (intraperitoneal) in CD2F1 (CDF1) mice. The following applies: higher = longer survival. Summed up: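 Implant tumor; dose compound or vehicle; measure endpoint in both groups; report treated divided by control.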
The mark [1] stands for this setting: endpoint: mean survival time, dose: 100.0 mg/kg/injection, schedule: Q04DX003 (ip), vehicle: saline with Tween-80.
Setting [2] is: endpoint: mean survival time, dose: 200.0 mg/kg/injection, schedule: Q04DX003 (ip), vehicle: saline with Tween-80.
Where [3] appears, read: endpoint: mean survival time, dose: 400.0 mg/kg/injection, schedule: Q04DX003 (ip), vehicle: saline with Tween-80.
Setting [4] is: endpoint: mean survival time, dose: 100.0 mg/kg/injection, schedule: Q01DX001 (ip), vehicle: saline.
[5] abbreviates: endpoint: mean survival time, dose: 200.0 mg/kg/injection, schedule: Q01DX001 (ip), vehicle: saline.
The mark [6] stands for this setting: endpoint: mean survival time, dose: 5.0 mg/kg/injection, schedule: Q04DX003 (ip), vehicle: saline.
Where [7] appears, read: endpoint: mean survival time, dose: 10.0 mg/kg/injection, schedule: Q04DX003 (ip), vehicle: saline.

Turning to `OCC1OC(n2cnc3cc4ccccc4cc32)C(O)C1O` (stereo not given), the T/C reads like this: (endpoint: median survival time, dose: 13.25 mg/kg/injection, schedule: Q01DX005 (ip), vehicle: saline with Tween-80) 100 % of control; (endpoint: median survival time, dose: 26.5 mg/kg/injection, schedule: Q01DX005 (ip), vehicle: saline with Tween-80) 98 % of control; (endpoint: median survival time, dose: 53.0 mg/kg/injection, schedule: Q01DX005 (ip), vehicle: saline with Tween-80) 88 % of control; (endpoint: median survival time, dose: 106.0 mg/kg/injection, schedule: Q01DX005 (ip), vehicle: saline with Tween-80) 91 % of control.

Turning to `Cc1ccc(N=C2C=CC(=O)O2)cc1`, the T/C is 98 % of control under setting [1], 104 % of control under setting [2] and 101 % of control under setting [3].

With `CC1(C)CC(Cl)(C(O)c2ccc([N+](=O)[O-])cc2)C(=O)c2ccccc21` (stereo not given), the T/C runs as follows: (endpoint: mean survival time, dose: 100.0 mg/kg/injection, schedule: Q04DX003 (ip), vehicle: acetone) 95 % of control; (endpoint: mean survival time, dose: 200.0 mg/kg/injection, schedule: Q04DX003 (ip), vehicle: acetone) 98 % of control; (endpoint: mean survival time, dose: 400.0 mg/kg/injection, schedule: Q04DX003 (ip), vehicle: acetone) 88 % of control.

`Cc1ccc(NC(=O)Nc2ccccc2Cl)c(C)c1`: the T/C was 102 % of control under setting [1], 90 % of control under setting [2] and 93 % of control under setting [3].

Take `CC(=O)Oc1ccc(C(=O)O)cc1`: the T/C runs as follows: (endpoint: mean survival time, dose: 50.0 mg/kg/injection, schedule: Q01DX009 (ip), vehicle: Klucel (hydroxypropylcellulose) (HPC)) 91 % of control; (endpoint: mean survival time, dose: 100.0 mg/kg/injection, schedule: Q01DX009 (ip), vehicle: Klucel (hydroxypropylcellulose) (HPC)) 98 % of control.

`Clc1c(CI)ccc(CI)c1Cl`: the T/C is 95 % of control (endpoint: mean survival time, dose: 25.0 mg/kg/injection, schedule: Q04DX003 (ip), vehicle: saline with Tween-80); 97 % of control (endpoint: mean survival time, dose: 50.0 mg/kg/injection, schedule: Q04DX003 (ip), vehicle: saline with Tween-80); 102 % of control under setting [1].

For the compound `CCCCCCCCCCSC(=N)N`, the T/C runs as follows: (endpoint: mean survival time, dose: 6.25 mg/kg/injection, schedule: Q01DX001 (ip), vehicle: Klucel (hydroxypropylcellulose) (HPC)) 102 % of control; (endpoint: mean survival time, dose: 12.5 mg/kg/injection, schedule: Q01DX001 (ip), vehicle: Klucel (hydroxypropylcellulose) (HPC)) 112 % of control; (endpoint: mean survival time, dose: 25.0 mg/kg/injection, schedule: Q01DX001 (ip), vehicle: Klucel (hydroxypropylcellulose) (HPC)) 96 % of control.

Regarding `CCOC(=O)c1cccc(N(CCOS(C)(=O)=O)CCOS(C)(=O)=O)c1`, the T/C by setting is: (endpoint: mean survival time, dose: 2.0 mg/kg/injection, schedule: Q01DX010 (ip), vehicle: saline) 100 % of control; (endpoint: mean survival time, dose: 4.0 mg/kg/injection, schedule: Q01DX010 (ip), vehicle: saline) 106 % of control; (endpoint: mean survival time, dose: 8.0 mg/kg/injection, schedule: Q01DX010 (ip), vehicle: saline) 119 % of control; (endpoint: mean survival time, dose: 16.0 mg/kg/injection, schedule: Q01DX010 (ip), vehicle: saline) 121 % of control; (endpoint: mean survival time, dose: 50.0 mg/kg/injection, schedule: Q01DX001 (ip), vehicle: saline) 98 % of control; under setting [4], 101 % of control. Also, the T/C under setting [5] is 101 % of control.

As for `O/N=C\C[n+]1cc2ccccc2cc1/C=N\O`, the T/C is, setting by setting: (endpoint: mean survival time, dose: 12.5 mg/kg/injection, schedule: Q04DX003 (ip), vehicle: saline) 93 % of control; (endpoint: mean survival time, dose: 25.0 mg/kg/injection, schedule: Q04DX003 (ip), vehicle: saline) 101 % of control; (endpoint: mean survival time, dose: 50.0 mg/kg/injection, schedule: Q04DX003 (ip), vehicle: saline) 90 % of control.

For the compound `O=[N+]([O-])c1ccc(C2C3C(c4ccccc4)=NCCCN32)cc1` (stereo not given), the T/C is, setting by setting: under setting [1], 104 % of control; under setting [2], 97 % of control; under setting [3], 97 % of control.

With `[Cl][Sn]([c]1ccccc1)([c]1ccccc1)[c]1ccccc1`, the T/C is 91 % of control (endpoint: mean survival time, dose: 2.5 mg/kg/injection, schedule: Q04DX003 (ip), vehicle: saline); 100 % of control under setting [6]; 97 % of control (endpoint: mean survival time, dose: 10.0 mg/kg/injection, schedule: Q04DX003 (ip), vehicle: saline with Tween-80); 96 % of control under setting [7].

For the compound `CCCCCCC(C)Oc1ccc(Cl)cc1Cl` (stereo not given), the T/C is, setting by setting: (endpoint: mean survival time, dose: 100.0 mg/kg/injection, schedule: Q04DX002 (ip), vehicle: saline with Tween-80) 90 % of control; (endpoint: mean survival time, dose: 200.0 mg/kg/injection, schedule: Q04DX002 (ip), vehicle: saline with Tween-80) 90 % of control; (endpoint: mean survival time, dose: 400.0 mg/kg/injection, schedule: Q04DX002 (ip), vehicle: saline with Tween-80) 101 % of control.

In the case of `CCOC(=O)/C(=C(\[O-])OCC)[n+]1ccccc1`, the T/C is 97 % of control under setting [1], 100 % of control under setting [2] and 100 % of control under setting [3].

Turning to `[O]=[Sb]([c]1ccccc1)([c]1ccccc1)[c]1ccccc1`, the T/C under setting [1] was 101 % of control.

Turning to `CO[C@@]12[C@@H]3N[C@@H]3CN1C1=C(C(=O)C(NCCc3ccc(O)cc3)=C(C)C1=O)[C@@H]2COC(N)=O`, the T/C was 102 % of control (endpoint: mean survival time, dose: 1.5 mg/kg/injection, schedule: Q01DX001 (ip), vehicle: water); 104 % of control and 111 % of control (endpoint: mean survival time, dose: 3.0 mg/kg/injection, schedule: Q01DX001 (ip), vehicle: water); 111 % of control (endpoint: mean survival time, dose: 6.0 mg/kg/injection, schedule: Q01DX001 (ip), vehicle: water); 115 % of control (endpoint: mean survival time, dose: 12.0 mg/kg/injection, schedule: Q01DX001 (ip), vehicle: water); 151 % of control (endpoint: mean survival time, dose: 48.0 mg/kg/injection, schedule: Q01DX001 (ip), vehicle: water).

On to `O=C(O)/C=N/NS(=O)(=O)c1ccc(Cl)cc1`, for which the T/C runs as follows: (endpoint: mean survival time, dose: 12.5 mg/kg/injection, schedule: Q04DX003 (ip), vehicle: other) 97 % of control; (endpoint: mean survival time, dose: 25.0 mg/kg/injection, schedule: Q04DX003 (ip), vehicle: other) 105 % of control; (endpoint: mean survival time, dose: 50.0 mg/kg/injection, schedule: Q04DX003 (ip), vehicle: other) 118 % of control and 122 % of control; (endpoint: mean survival time, dose: 200.0 mg/kg/injection, schedule: Q04DX003 (ip), vehicle: other) 174 % of control.

In the case of `COc1cc(/C=C/[N+](=O)[O-])cc(Br)c1OC`, the T/C is 103 % of control (endpoint: median survival time, dose: 6.25 mg/kg/injection, schedule: Q01DX009 (ip), vehicle: saline with Tween-80); 96 % of control (endpoint: median survival time, dose: 12.5 mg/kg/injection, schedule: Q01DX009 (ip), vehicle: saline with Tween-80); 109 % of control (endpoint: median survival time, dose: 25.0 mg/kg/injection, schedule: Q01DX009 (ip), vehicle: saline with Tween-80).

Regarding `C[n+]1ccn(Cc2ccc([N+](=O)[O-])cc2)c1`, the T/C under setting [4] was 100 % of control and the T/C under setting [5] is 101 % of control.

Consider `CC1C(C)C1Cl` (stereo not given), for which the T/C was 95 % of control (endpoint: mean survival time, dose: 50.0 mg/kg/injection, schedule: Q01DX005 (ip), vehicle: saline); 89 % of control (endpoint: mean survival time, dose: 50.0 mg/kg/injection, schedule: Q01DX009 (ip), vehicle: saline); 94 % of control (endpoint: mean survival time, dose: 50.0 mg/kg/injection, schedule: Q04DX002 (ip), vehicle: saline); 95 % of control (endpoint: mean survival time, dose: 100.0 mg/kg/injection, schedule: Q01DX005 (ip), vehicle: saline); 93 % of control (endpoint: mean survival time, dose: 100.0 mg/kg/injection, schedule: Q01DX009 (ip), vehicle: saline); 97 % of control (endpoint: mean survival time, dose: 100.0 mg/kg/injection, schedule: Q04DX002 (ip), vehicle: saline). Further, the T/C was 109 % of control (endpoint: mean survival time, dose: 200.0 mg/kg/injection, schedule: Q01DX005 (ip), vehicle: saline); 93 % of control (endpoint: mean survival time, dose: 200.0 mg/kg/injection, schedule: Q01DX009 (ip), vehicle: saline); 94 % of control (endpoint: mean survival time, dose: 200.0 mg/kg/injection, schedule: Q04DX002 (ip), vehicle: saline); 106 % of control (endpoint: mean survival time, dose: 400.0 mg/kg/injection, schedule: Q01DX005 (ip), vehicle: saline); 93 % of control (endpoint: mean survival time, dose: 400.0 mg/kg/injection, schedule: Q01DX009 (ip), vehicle: saline); 97 % of control (endpoint: mean survival time, dose: 400.0 mg/kg/injection, schedule: Q04DX002 (ip), vehicle: saline).

For the compound `CCC(C)C#N` (stereo not given), the T/C is 98 % of control (endpoint: mean survival time, dose: 5.0 mg/kg/injection, schedule: Q01DX009 (ip), vehicle: saline with Tween-80); 97 % of control under setting [6]; 100 % of control (endpoint: mean survival time, dose: 10.0 mg/kg/injection, schedule: Q01DX009 (ip), vehicle: saline with Tween-80); 103 % of control under setting [7]; 94 % of control (endpoint: mean survival time, dose: 20.0 mg/kg/injection, schedule: Q01DX009 (ip), vehicle: saline with Tween-80); 103 % of control (endpoint: mean survival time, dose: 20.0 mg/kg/injection, schedule: Q04DX003 (ip), vehicle: saline).

On to `CC1(C)N=C(N)N=C(N)N1c1ccc(C(=O)Nc2ccc(S(=O)(=O)F)cc2)cc1`, for which the T/C runs as follows: under setting [4], 94 % of control; under setting [5], 97 % of control; (endpoint: mean survival time, dose: 400.0 mg/kg/injection, schedule: Q01DX001 (ip), vehicle: saline) 103 % of control.

(Values after PubChem BioAssay AID256 (DTP/NCI, 2004).)
